Article PMC8213057, “Targeting ALK2: An Open Science Approach to Developing Therapeutics for the Treatment of Diffuse Intrinsic Pontine Glioma” (Journal of Medicinal Chemistry, 2020)

Key:
[1] = biological target: FLT1/VEGFR1 (Homo sapiens, UniProt P17948); conditions: 1 μM; Run 1, Run 2
[2] = biological target: SYK (Homo sapiens, UniProt P43405); conditions: 1 μM; Run 1, Run 2
[3] = biological target: T1, EPHB2 (Homo sapiens, UniProt P29323); assay: biochemical; conditions: read-out: % enzyme activity, 1 μM; Run 1, Run 2
T1 sequence (P29323 19-1055): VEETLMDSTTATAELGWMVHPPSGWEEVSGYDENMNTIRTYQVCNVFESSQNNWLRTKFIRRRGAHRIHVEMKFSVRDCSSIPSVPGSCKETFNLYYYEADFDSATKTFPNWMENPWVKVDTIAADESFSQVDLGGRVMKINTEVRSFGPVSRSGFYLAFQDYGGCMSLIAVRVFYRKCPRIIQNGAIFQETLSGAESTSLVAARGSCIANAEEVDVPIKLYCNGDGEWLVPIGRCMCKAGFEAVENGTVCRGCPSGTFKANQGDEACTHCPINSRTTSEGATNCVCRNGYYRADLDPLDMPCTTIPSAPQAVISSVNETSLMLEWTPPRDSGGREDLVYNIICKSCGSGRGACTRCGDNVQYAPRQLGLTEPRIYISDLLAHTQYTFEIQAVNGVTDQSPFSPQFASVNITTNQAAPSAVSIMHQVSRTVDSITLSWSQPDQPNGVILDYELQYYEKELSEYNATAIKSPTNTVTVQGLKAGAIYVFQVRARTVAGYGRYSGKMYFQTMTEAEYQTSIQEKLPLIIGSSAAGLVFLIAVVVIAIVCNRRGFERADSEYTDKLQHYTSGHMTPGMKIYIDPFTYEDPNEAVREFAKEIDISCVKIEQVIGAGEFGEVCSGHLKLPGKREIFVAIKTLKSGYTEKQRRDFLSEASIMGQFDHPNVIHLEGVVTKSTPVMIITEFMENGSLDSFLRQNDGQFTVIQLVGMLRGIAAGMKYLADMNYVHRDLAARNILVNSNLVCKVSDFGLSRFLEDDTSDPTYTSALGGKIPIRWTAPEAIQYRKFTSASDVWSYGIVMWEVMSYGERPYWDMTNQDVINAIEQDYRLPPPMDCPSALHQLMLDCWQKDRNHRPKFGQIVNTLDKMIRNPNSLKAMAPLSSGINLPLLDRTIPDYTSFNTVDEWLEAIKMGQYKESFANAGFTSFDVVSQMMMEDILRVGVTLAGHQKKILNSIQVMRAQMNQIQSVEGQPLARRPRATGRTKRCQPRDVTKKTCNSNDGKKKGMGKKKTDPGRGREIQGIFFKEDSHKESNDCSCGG

[4] = biological target: T2, MEKK6 (Homo sapiens, UniProt O95382); assay: biochemical; conditions: read-out: % enzyme activity, 1 μM; Run 1, Run 2
T2 sequence (O95382 1-1288): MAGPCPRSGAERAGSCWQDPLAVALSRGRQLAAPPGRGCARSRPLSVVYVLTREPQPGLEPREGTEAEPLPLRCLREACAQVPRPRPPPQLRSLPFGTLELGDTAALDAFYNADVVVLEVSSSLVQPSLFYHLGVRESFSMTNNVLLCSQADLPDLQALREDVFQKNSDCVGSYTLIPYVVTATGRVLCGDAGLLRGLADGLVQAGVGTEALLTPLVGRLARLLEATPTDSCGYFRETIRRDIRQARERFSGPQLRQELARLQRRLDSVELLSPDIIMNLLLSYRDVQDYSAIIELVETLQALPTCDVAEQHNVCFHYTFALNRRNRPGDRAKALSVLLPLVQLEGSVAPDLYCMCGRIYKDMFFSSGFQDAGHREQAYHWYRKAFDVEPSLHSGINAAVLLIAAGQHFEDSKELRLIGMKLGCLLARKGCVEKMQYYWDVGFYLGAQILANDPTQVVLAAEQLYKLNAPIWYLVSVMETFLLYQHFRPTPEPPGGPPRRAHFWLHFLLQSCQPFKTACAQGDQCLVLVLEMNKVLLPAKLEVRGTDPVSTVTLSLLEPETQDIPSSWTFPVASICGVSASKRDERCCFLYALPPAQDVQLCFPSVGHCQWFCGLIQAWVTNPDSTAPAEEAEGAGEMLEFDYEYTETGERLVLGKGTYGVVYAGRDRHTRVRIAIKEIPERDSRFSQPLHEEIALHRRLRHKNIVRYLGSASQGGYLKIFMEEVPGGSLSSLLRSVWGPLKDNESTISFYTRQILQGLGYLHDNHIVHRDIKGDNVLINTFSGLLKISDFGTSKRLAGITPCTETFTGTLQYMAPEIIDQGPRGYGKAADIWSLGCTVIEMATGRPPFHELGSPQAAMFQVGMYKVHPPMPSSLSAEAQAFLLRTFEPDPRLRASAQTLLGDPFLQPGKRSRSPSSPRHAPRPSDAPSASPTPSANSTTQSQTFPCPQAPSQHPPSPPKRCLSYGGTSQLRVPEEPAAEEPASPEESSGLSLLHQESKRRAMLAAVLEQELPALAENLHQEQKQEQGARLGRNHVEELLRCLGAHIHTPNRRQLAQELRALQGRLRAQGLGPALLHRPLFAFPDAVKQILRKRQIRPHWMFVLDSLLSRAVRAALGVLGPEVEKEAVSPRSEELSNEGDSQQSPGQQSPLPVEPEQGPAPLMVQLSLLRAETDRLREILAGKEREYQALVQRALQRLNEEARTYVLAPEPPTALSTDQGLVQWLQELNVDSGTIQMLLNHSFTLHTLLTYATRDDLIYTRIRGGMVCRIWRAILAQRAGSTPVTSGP

[5] = biological target: CDK3/cyclin E2 (Homo sapiens, UniProt Q00526); conditions: 1 μM; Run 1, Run 2
CDK3/cyclin E2, sequence (Q00526 whole entry): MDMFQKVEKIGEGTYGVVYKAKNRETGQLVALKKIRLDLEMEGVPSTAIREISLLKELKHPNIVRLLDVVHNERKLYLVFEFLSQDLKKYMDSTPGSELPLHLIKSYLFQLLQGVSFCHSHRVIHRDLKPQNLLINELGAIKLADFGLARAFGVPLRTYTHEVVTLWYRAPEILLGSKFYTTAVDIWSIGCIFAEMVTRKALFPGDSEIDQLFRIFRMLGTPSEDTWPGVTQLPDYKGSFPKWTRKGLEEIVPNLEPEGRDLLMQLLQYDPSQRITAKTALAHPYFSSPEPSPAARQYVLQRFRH
CDK3/cyclin E2, sequence (O96020 whole entry partner): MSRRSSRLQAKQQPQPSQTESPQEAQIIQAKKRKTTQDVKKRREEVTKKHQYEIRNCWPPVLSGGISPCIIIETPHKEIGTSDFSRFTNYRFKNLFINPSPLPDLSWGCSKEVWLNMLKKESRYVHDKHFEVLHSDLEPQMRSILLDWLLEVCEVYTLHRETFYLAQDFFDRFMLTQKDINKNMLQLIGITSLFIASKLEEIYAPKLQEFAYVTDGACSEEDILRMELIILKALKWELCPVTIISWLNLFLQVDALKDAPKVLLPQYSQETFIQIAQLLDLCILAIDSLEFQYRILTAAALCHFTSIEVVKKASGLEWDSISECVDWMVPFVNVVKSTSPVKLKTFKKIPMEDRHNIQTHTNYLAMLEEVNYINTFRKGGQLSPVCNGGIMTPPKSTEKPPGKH

FLT1/VEGFR1, sequence (P17948 27-1338): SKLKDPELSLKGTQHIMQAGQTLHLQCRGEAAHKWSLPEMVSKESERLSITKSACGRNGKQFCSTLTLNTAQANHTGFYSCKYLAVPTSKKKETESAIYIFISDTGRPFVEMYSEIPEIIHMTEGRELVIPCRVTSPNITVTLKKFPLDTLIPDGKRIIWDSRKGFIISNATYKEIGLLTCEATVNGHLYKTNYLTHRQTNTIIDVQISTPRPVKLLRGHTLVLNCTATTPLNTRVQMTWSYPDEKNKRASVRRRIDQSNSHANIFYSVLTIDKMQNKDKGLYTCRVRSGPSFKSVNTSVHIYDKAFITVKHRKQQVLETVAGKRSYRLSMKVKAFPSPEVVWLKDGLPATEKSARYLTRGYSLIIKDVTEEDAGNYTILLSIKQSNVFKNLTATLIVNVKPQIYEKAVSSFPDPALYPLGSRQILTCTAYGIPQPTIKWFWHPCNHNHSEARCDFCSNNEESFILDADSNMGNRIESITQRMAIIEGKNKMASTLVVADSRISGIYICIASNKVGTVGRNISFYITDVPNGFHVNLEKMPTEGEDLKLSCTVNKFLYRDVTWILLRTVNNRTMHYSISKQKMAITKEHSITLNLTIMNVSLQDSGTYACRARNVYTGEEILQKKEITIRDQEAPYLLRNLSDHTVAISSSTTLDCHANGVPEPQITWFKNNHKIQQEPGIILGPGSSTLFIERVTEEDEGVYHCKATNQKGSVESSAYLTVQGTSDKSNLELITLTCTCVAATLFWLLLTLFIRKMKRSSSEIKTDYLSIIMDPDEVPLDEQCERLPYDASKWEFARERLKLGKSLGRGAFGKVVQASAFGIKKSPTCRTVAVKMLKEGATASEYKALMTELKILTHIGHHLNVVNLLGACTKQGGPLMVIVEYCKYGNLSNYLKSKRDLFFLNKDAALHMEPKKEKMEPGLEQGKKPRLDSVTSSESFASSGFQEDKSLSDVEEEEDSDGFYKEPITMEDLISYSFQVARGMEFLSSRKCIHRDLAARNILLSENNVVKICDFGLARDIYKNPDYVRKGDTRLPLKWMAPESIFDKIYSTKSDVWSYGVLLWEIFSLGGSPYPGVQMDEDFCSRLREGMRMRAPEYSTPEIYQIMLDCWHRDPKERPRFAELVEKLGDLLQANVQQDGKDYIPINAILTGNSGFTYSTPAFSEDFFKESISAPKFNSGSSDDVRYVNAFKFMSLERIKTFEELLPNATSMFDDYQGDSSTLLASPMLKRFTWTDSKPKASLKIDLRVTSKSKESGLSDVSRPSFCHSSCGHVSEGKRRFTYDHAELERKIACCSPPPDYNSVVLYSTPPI

Structure (SMILES) | % enzyme activity [1] | % enzyme activity [2] | remaining activity at 1 µM [3] | remaining activity at 1 µM [4] | % enzyme activity [5]
COc1cc(-c2cncc(-c3ccc(N4CCN(C)CC4)cc3)c2C)cc(F)c1C(N)=O [Compound 26a, 2-Fluoro-6-methoxy-4-(4-methyl-5-(4-(4-methylpiperazin-1-yl)phenyl)pyridin-3-yl)benzamide] | 105.29% | 100.12% | 93.9% | 98.3% | 88.05%
COc1cc(-c2cncc(-c3ccc(N4C[C@@H](C)N(C)[C@@H](C)C4)cc3)c2C)cc(F)c1C(N)=O [Compound 26c, 2-Fluoro-6-methoxy-4-(4-methyl-5-(4-((3R,5S)-3,4,5-trimethylpiperazin-1-yl)phenyl)pyridin-3-yl)benzamide] | 104.04% | 101.24% | 98.8% | 95.9% | 83.94%
